# According to patent publication US6803046B2, “Sincalide formulations” (Bracco International B.V., priority 2002, dated 2004):
# Key:
# [1] = Metal ion oxidative effects on sincalide with/without DTPA (RP-HPLC); format: physicochemical; settings: analyzed within 8 hours
# Method: Experiments were performed to determine whether these residues, as present in sincalide, were susceptible to oxidation by free metals. These experiments also examined the role of DTPA as a formulation excipient to chelate metals and thereby inhibit sincalide oxidation. FIGS. 2-4 show the three oxidized forms of sincalide containing either mono- or disulfoxides.
# The experimental formulation (25 mL) solution with (+) and without (−) DTPA were individually spiked with nine metal ions, as summarized in Table 7.
# Copper and manganese, in the absence of DTPA, have the greatest oxidative effect on the methionine residues of sincalide resulting in combined weight percentages of Met 3 and Met 6 monosulfoxides (vs sincalide) of 85.5 and 128.9, respectively. In addition to the presence of sincalide Met 3 and Met 6 monosulfoxides (tR≈14.8 min. {doublet} and tR≈18 min.), formation of sincalide disulfoxide (tR≈6.5 min.) was also noted in the cases of copper and manganese, but not with the other metals.
# gallbladder = settings: patients pretreated before hepatobiliary imaging; typical; cited from earlier work
structure (smiles),measurement,setting,value
"CSCC[C@H](NC(=O)[C@H](Cc1ccc(OS(=O)(=O)O)cc1)NC(=O)[C@@H](N)CC(=O)O)C(=O)NCC(=O)N[C@@H](Cc1c[nH]c2ccccc12)C(=O)N[C@@H](CCSC)C(=O)N[C@@H](CC(=O)O)C(=O)N[C@@H](Cc1ccccc1)C(N)=O [Sincalide, 1-De(5-oxo-L-glutamine-5-L-proline)-2-de-L-methioninecaerulein]",combined percentages of Met 3 and Met 6 monosulfoxides (vs sincalide),[1]; experimental formulation without DTPA spiked with copper (0.63 mM Cu2+),85.5%
same,combined percentages of Met 3 and Met 6 monosulfoxides (vs sincalide),[1]; experimental formulation without DTPA spiked with manganese (0.18 mM Mn2+),128.9%
same,time to gallbladder contraction after sincalide injection,gallbladder,≤ 15 min
